Assay results as given in patent publication US5561119A, “Glycosylated prodrugs, their method of preparation and their uses” (Laboratoires Hoechst, priority 1991, dated 1996).
Converted amounts (≈) assume the structure as drawn.

How the values were obtained:
[1] = incubation of 60 with α-galactosidase from unroasted coffee beans (HPLC); assay type: biochemical, [550, 560, 561]; conditions: pH 6.8 (0.02M phosphate buffer), 37° C., 0.04 U/ml enzyme, 60 at 660 μg/ml
[2] = hydrolysis of acetates in vivo; conditions: 6, 13 and 48a to 7, 14 and 48b respectively
[3] = Proliferation test (MTT reduction) in L1210 tumoral cells; assay type: cell-based, [569, 570, 571, 572, 573, 575]; conditions: 72 hours, 37° C.
[4] = hydrolysis of 48b by α-galactosidase (HPLC); assay type: biochemical, [550, 552, 554]; conditions: placental alpha-galactosidase; α-galactosidase from human placenta, 0.075M N-acetylgalactosamine, 37° C., pH 5 (0.02M phosphate buffer); read-out: half-life of hydrolysis of the glycoside (converted)
stability in plasma = assay type: in vitro ADME
[5] = cleavability of glycosylated prodrugs by recombinant β-glucuronidase (reversed-phase HPLC); conditions: for half-life: beta-glucuronidase; for t1/2 arm: time for conversion of 50% of the anthracycline/arm compound to active anthracycline, 37° C., 1 U/ml, pH 7.2 to 6.8
[6] = cleavability of glycosylated prodrugs by α-galactosidase from coffee beans (reversed-phase HPLC); assay type: biochemical, [595, 596, 597]; conditions: 37° C., 1 U/ml, pH 7.2 to 6.8
[7] = beta-glucuronidase

With `COc1cccc2c1C(=O)c1c(O)c3c(c(O)c1C2=O)C[C@@](O)(C(C)=O)C[C@@H]3O[C@H]1C[C@H](NC(=O)OCc2ccc(O)c(Cl)c2)[C@H](O)[C@H](C)O1` [deglycosidated derivative 60] the “detection of the deglycosidated derivative” value [1] was “not detected because of its high rate of disappearance”.

With `COc1cccc2c1C(=O)c1c(O)c3c(c(O)c1C2=O)C[C@@](O)(C(C)=O)C[C@@H]3O[C@H]1C[C@H](NC(=O)OCc2ccc(O[C@H]3O[C@H](COC(C)=O)[C@H](OC(C)=O)[C@H](OC(C)=O)[C@H]3OC(C)=O)cc2)[C@H](O)[C@H](C)O1` [derivative 6, N-[4-(2,3,4,6-Tetra-O-acetyl-α-D-galactopyranosyl)benzyloxycarbonyl]daunorubicin] the “hydrolysis in vivo to the deacetylated prodrug” value (shortened to “hydrolysis in vivo”) [2] was “hydrolyzed in vivo” and the IC50 [3] was over 1 µg/mL.

With `COc1cccc2c1C(=O)c1c(O)c3c(c(O)c1C2=O)C[C@@](O)(C(C)=O)C[C@@H]3O[C@H]1C[C@H](NC(=O)OCc2ccc(O[C@H]3O[C@H](CO)[C@H](O)[C@H](O)[C@H]3O)cc2)[C@H](O)[C@H](C)O1` [derivative 7, N-[4-(α-D-Galactopyranosyl)benzyloxycarbonyl]daunorubicin] the IC50 [3] was over 1 µg/mL.

For `COc1cccc2c1C(=O)c1c(O)c3c(c(O)c1C2=O)C[C@@](O)(C(C)=O)C[C@@H]3O[C@H]1C[C@H](NC(=O)OCc2ccccc2O[C@H]2O[C@H](COC(C)=O)[C@H](OC(C)=O)[C@H](OC(C)=O)[C@H]2OC(C)=O)[C@H](O)[C@H](C)O1` [derivative 13, N-[2-(2,3,4,6-Tetra-O-acetyl-α-D-galactopyranosyl)benzyloxycarbonyl]daunorubicin], the “hydrolysis in vivo” value [2] was “hydrolyzed in vivo” and the IC50 [3] was over 1 µg/mL.

In the case of `COc1cccc2c1C(=O)c1c(O)c3c(c(O)c1C2=O)C[C@@](O)(C(C)=O)C[C@@H]3O[C@H]1C[C@H](NC(=O)OCc2ccccc2O[C@H]2O[C@H](CO)[C@H](O)[C@H](O)[C@H]2O)[C@H](O)[C@H](C)O1` [derivative 14, N-[2-(α-D-Galactopyranosyl)benzyloxycarbonyl]daunorubicin], the IC50 [3] is reported as over 1 µg/mL.

For `COc1cccc2c1C(=O)c1c(O)c3c(c(O)c1C2=O)C[C@@](O)(C(C)=O)C[C@@H]3O[C@H]1C[C@H](NC(=O)OCc2ccc(O[C@@H]3O[C@H](C(=O)O)[C@@H](O)[C@H](O)[C@H]3O)cc2)[C@H](O)[C@H](C)O1` [derivative 22, N-(4-Hydroxybenzyloxycarbonyl)daunorubicin β-D-glucuronide], the IC50 [3] was over 10 µg/mL.

Compound `COc1cccc2c1C(=O)c1c(O)c3c(c(O)c1C2=O)C[C@@](O)(C(C)=O)C[C@@H]3O[C@H]1C[C@H](NC(=O)OCc2ccccc2O[C@@H]2O[C@H](C(=O)O)[C@@H](O)[C@H](O)[C@H]2O)[C@H](O)[C@H](C)O1` [derivative 27c, N-[2-((β-D-Glucopyranosyl)uronic acid)benzyloxycarbonyl]daunorubicin] has an IC50 [3] of over 1 µg/mL.

For `COc1cccc2c1C(=O)c1c(O)c3c(c(O)c1C2=O)C[C@@](O)(C(C)=O)C[C@@H]3O[C@H]1C[C@H](NC(=O)OCc2cc([N+](=O)[O-])ccc2O[C@H]2O[C@H](COC(C)=O)[C@H](OC(C)=O)[C@H](OC(C)=O)[C@H]2OC(C)=O)[C@H](O)[C@H](C)O1` [derivative 48a, N-[2-(2,3,4,6-Tetra-O-acetyl-α-D-galactopyranosyl)-5-nitrobenzyloxycarbonyl]daunorubicin], the “hydrolysis in vivo” value [2] was “hydrolyzed in vivo” and the IC50 [3] was over 10 µg/mL.

With `COc1cccc2c1C(=O)c1c(O)c3c(c(O)c1C2=O)C[C@@](O)(C(C)=O)C[C@@H]3O[C@H]1C[C@H](NC(=O)OCc2cc([N+](=O)[O-])ccc2O[C@H]2O[C@H](CO)[C@H](O)[C@H](O)[C@H]2O)[C@H](O)[C@H](C)O1` [derivative 48b, N-[2-(α-D-Galactopyranosyl)-5-nitrobenzyloxycarbonyl]daunorubicin] the IC50 [3] was over 1 µg/mL, the half-life [4] was 60 min and the stability in plasma (stability in plasma) was “stable in plasma”.

For `COc1cccc2c1C(=O)c1c(O)c3c(c(O)c1C2=O)C[C@@](O)(C(C)=O)C[C@@H]3O[C@H]1C[C@H](NC(=O)OCc2cc([N+](=O)[O-])ccc2O[C@@H]2O[C@H](C(=O)O)[C@@H](O)[C@H](O)[C@H]2O)[C@H](O)[C@H](C)O1` [derivative 54c, N-[2-((β-D-Glucopyranosyl)uronic acid)-5-nitrobenzyloxycarbonyl]daunorubicin], the half-life [5] was 41.4 min and the t1/2 arm [5] was 5,30 h.

With `COc1cccc2c1C(=O)c1c(O)c3c(c(O)c1C2=O)C[C@@](O)(C(C)=O)C[C@@H]3O[C@H]1C[C@H](NC(=O)OCc2ccc(O[C@H]3O[C@H](CO)[C@H](O)[C@H](O)[C@H]3O)c(Cl)c2)[C@H](O)[C@H](C)O1` [derivative 60, N-[3-Chloro-4-(α-D-galactopyranosyl)benzyloxycarbonyl]daunorubicin] the half-life ([6]; alpha-galactosidase, time for cleavage of 50% of the glycoside, read-out: t1/2 cleavage of the glycoside (converted)) was 1.2 min and the t1/2 arm ([6]; time for conversion of 50% of the anthracycline/arm compound to active anthracycline) was < 0,08 h.

With `COc1cccc2c1C(=O)c1c(O)c3c(c(O)c1C2=O)C[C@@](O)(C(C)=O)C[C@@H]3O[C@H]1C[C@H](NC(=O)OCc2ccc(O[C@@H]3O[C@H](C(=O)O)[C@@H](O)[C@H](O)[C@H]3O)c([N+](=O)[O-])c2)[C@H](O)[C@H](C)O1` [derivative 64c, N-(4-Hydroxy-3-nitrobenzyloxycarbonyl)daunorubicin β-D-glucuronide] the half-life [5] was 25.2 min and the t1/2 arm [5] was < 0,08 h.

With `COc1cc(O[C@@H]2O[C@H](C(=O)O)[C@@H](O)[C@H](O)[C@H]2O)c(COC(=O)N[C@H]2C[C@H](O[C@H]3C[C@](O)(C(C)=O)Cc4c(O)c5c(c(O)c43)C(=O)c3c(OC)cccc3C5=O)O[C@@H](C)[C@H]2O)cc1[N+](=O)[O-]` [derivative 68c, N-[4-Methoxy-5-nitro-2-((β-D-glucopyranosyl)uronic acid)benzyloxycarbonyl]daunorubicin] the half-life [5] was 113 min and the t1/2 arm [5] was 0,75 h.

With `COc1cccc2c1C(=O)c1c(O)c3c(c(O)c1C2=O)CC(O)(C(=O)CO)CC3OC1CC(NC(=O)OCc2ccc(OC3OC(C(=O)O)C(O)C(O)C3O)c([N+](=O)[O-])c2)C(O)C(C)O1` [derivative 70c, N-[4-hydroxy-3-nitro-benzyloxy-carbonyl) doxorubicin β-D-glucuronide] the “t1/2 cleavage of the glycoside” value [7] was 0,92 h.

With `COc1cccc2c1C(=O)c1c(O)c3c(c(O)c1C2=O)C[C@@](O)(C(C)=O)C[C@@H]3O[C@H]1C[C@H](NC(=O)OCc2cc(Cl)ccc2O[C@@H]2O[C@H](C(=O)O)[C@@H](O)[C@H](O)[C@H]2O)[C@H](O)[C@H](C)O1` [derivative 82c, N-[2-((β-D-glucopyranosyl)uronic acid)-5-chlorobenzyloxycarbonyl]daunorubicin] the half-life [5] was 244 min and the t1/2 arm [5] was 12,00 h.

With `COc1cccc2c1C(=O)c1c(O)c3c(c(O)c1C2=O)C[C@@](O)(C(=O)CO)C[C@@H]3O[C@H]1C[C@H](N)[C@H](O)[C@H](C)O1` [doxorubicin, reference compound] the IC50 [3] was 0.02 µg/mL (≈ 0.0368 µM).
